# Patent US20250346602A1, “LACTAM SUBSTITUTED IMIDAZOPYRIDAZINE IL-17A MODULATORS AND USES THEREOF” (DICE ALPHA, INC., priority 2022, published 2025)
# Molecular target: T1, IL-17A/A (Homo sapiens, UniProt Q16552)
# T1 construct: purchased Genscript Z03228
# T1 sequence (Q16552 24-155): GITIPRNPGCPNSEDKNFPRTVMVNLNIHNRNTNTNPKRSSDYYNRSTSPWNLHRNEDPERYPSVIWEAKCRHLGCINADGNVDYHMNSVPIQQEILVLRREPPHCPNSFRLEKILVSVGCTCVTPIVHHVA
# Experiment: IL-17A/A HEK-Blue cell assay
# Format: cell-based
# Conditions: HEK-Blue IL-17A reporter cell line (HEK 293), IL-17A/A stimulation, 20 hours incubation, SEAP read at A630
# Outline: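 HEK293 reporter cells expressing IL-17RA, IL-17RC and Act1 were given titrated compound (top final 10, 1 or 0.3 uM; 0.1% DMSO) right before IL-17A/A and incubated 20 hours. NFκB-driven SEAP in the media was read at A630 with Quanti-Blue, and IC50 came from a 4-parameter nonlinear fit.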
row,IC50 [µM],SMILES
1,0.1 to 1,"CC(C)(F)c1nocc1C(=O)N[C@H](c1cn2nc(CC3C[C@@H](C(F)(F)F)CNC3=O)ccc2n1)C1CCC(F)(F)CC1 (stereo partly drawn) [Compound 121, N-((1S)-(4,4-difluorocyclohexyl)(6-(((5R)-2-oxo-5-(trifluoromethyl)piperidin-3-yl)methyl)imidazo[1,2-b]pyridazin-2-yl)methyl)-3-(2-fluoropropan-2-yl)isoxazole-4-carboxamide]"
2,< 0.1,"CCn1nccc1C(=O)NC(c1cn2nc(CC3C[C@@H](C(F)(F)F)CNC3=O)ccc2n1)C1CCC2CC2CC1 (single isomer, unassigned) [Compound 176]"
3,0.1 to 1,"CCn1nccc1C(=O)N[C@H](c1cn2nc(C[C@@H]3CCCNC3=O)ccc2n1)C(C1CC1)C1CC1 (single isomer, unassigned) [Compound 33]"
4,0.1 to 1,"CCn1nccc1C(=O)N[C@H](c1cn2nc(CC3C[C@@H](C)NC3=O)ccc2n1)[C@H]1CC[C@H](C)CC1 (single isomer, unassigned) [Compound 63]"
5,> 1,"CCn1nccc1C(=O)N[C@H](c1cn2nc(CC3CC(F)(F)CNC3=O)ccc2n1)C(C1CC1)C1CC1 (single isomer, unassigned) [Compound 29]"
6,0.1 to 1,"O=C(N[C@H](c1cn2nc(CC3C[C@@H](C(F)(F)F)CNC3=O)ccc2n1)C1CCC(F)(F)CC1)c1ccnn1C1CC1 (stereo partly drawn) [Compound 137, 1-cyclopropyl-N-((1S)-(4,4-difluorocyclohexyl)(6-(((5R)-2-oxo-5-(trifluoromethyl)piperidin-3-yl)methyl)imidazo[1,2-b]pyridazin-2-yl)methyl)-1H-pyrazole-5-carboxamide]"
7,> 1,"O=C(N[C@H](c1cn2nc(CC3C[C@@H](C(F)(F)F)CNC3=O)ccc2n1)C1CCC(F)(F)CC1)c1cnsn1 (stereo partly drawn) [Compound 132, N-((1S)-(4,4-difluorocyclohexyl)(6-(((5R)-2-oxo-5-(trifluoromethyl)piperidin-3-yl)methyl)imidazo[1,2-b]pyridazin-2-yl)methyl)-1,2,5-thiadiazole-3-carboxamide]"
8,> 1,"CCn1nccc1C(=O)N[C@H](c1cn2nc(CC3C[C@@H](C(F)(F)F)CNC3=O)ccc2n1)[C@H]1C[C@@H](C2CC2)C1 (stereo partly drawn) [Compound 179, N-((1S)-((1S,3R)-3-cyclopropylcyclobutyl)(6-(((5R)-2-oxo-5-(trifluoromethyl)piperidin-3-yl)methyl)imidazo[1,2-b]pyridazin-2-yl)methyl)-1-ethyl-1H-pyrazole-5-carboxamide]"
9,> 1,"CCn1nccc1C(=O)N[C@H](c1cn2nc(CC3C[C@@H](C(F)(F)F)NC3=O)ccc2n1)C(C1CC1)C1CC1 (single isomer, unassigned) [Compound 15]"
10,< 0.1,"CC(C)c1nonc1C(=O)N[C@H](c1cn2nc(CC3C[C@@H](C(F)(F)F)CNC3=O)ccc2n1)C1CCC(F)(F)CC1 (stereo partly drawn) [Compound 117, N-((1S)-(4,4-difluorocyclohexyl)(6-(((5R)-2-oxo-5-(trifluoromethyl)piperidin-3-yl)methyl)imidazo[1,2-b]pyridazin-2-yl)methyl)-4-isopropyl-1,2,5-oxadiazole-3-carboxamide]"
11,0.1 to 1,"CCn1nccc1C(=O)NC(c1cn2nc(CC3CC(C)CNC3=O)ccc2n1)C1CCC(C)CC1 (single isomer, unassigned) [Compound 49]"
12,0.1 to 1,"CCc1nonc1C(=O)N[C@H](c1cn2nc(C[C@H]3C[C@@H](C(F)(F)F)NC3=O)ccc2n1)C1CCC(F)(F)CC1 [Compound 17, N—((S)-(4,4-difluorocyclohexyl)(6-(((3R,5S)-2-oxo-5-(trifluoromethyl)pyrrolidin-3-yl)methyl)imidazo[1,2-b]pyridazin-2-yl)methyl)-4-ethyl-1,2,5-oxadiazole-3-carboxamide]"
13,0.1 to 1,"CCn1nccc1C(=O)N[C@H](c1cn2nc(CC3C[C@@H](C(F)(F)F)CNC3=O)ccc2n1)C1CC2(C1)CC(F)(F)C2 (single isomer, unassigned) [Compound 173]"
14,< 0.1,"CCn1nccc1C(=O)N[C@H](c1cn2nc(CC3C[C@@H](C(F)(F)F)CNC3=O)ccc2n1)[C@@H]1CCCC(F)(F)C1 (stereo partly drawn) [Compound 143, N-((1S)—((R)-3,3-difluorocyclohexyl)(6-(((5R)-2-oxo-5-(trifluoromethyl)piperidin-3-yl)methyl)imidazo[1,2-b]pyridazin-2-yl)methyl)-1-ethyl-1H-pyrazole-5-carboxamide]"
15,0.1 to 1,"O=C(N[C@H](c1cn2nc(CC3C[C@@H](C(F)(F)F)CNC3=O)ccc2n1)C1CCC(F)(F)CC1)c1conc1CF (stereo partly drawn) [Compound 119, N-((1S)-(4,4-difluorocyclohexyl)(6-(((5R)-2-oxo-5-(trifluoromethyl)piperidin-3-yl)methyl)imidazo[1,2-b]pyridazin-2-yl)methyl)-3-(fluoromethyl)isoxazole-4-carboxamide]"
16,< 0.1,"CC(C)c1nonc1C(=O)N[C@H](c1cn2nc(CC3C[C@@H](C(F)(F)F)CNC3=O)ccc2n1)[C@H]1CCCC(F)(F)C1 (stereo partly drawn) [Compound 150, N-((1S)—((S)-3,3-difluorocyclohexyl)(6-(((5R)-2-oxo-5-(trifluoromethyl)piperidin-3-yl)methyl)imidazo[1,2-b]pyridazin-2-yl)methyl)-4-isopropyl-1,2,5-oxadiazole-3-carboxamide]"
17,0.1 to 1,"CCn1nccc1C(=O)N[C@H](c1cn2nc(CC3CC4(CC4)NC3=O)ccc2n1)C(C1CC1)C1CC1 (stereo partly drawn) [Compound 60, N-((1S)-2,2-dicyclopropyl-1-(6-((5-oxo-4-azaspiro[2.4]heptan-6-yl)methyl)imidazo[1,2-b]pyridazin-2-yl)ethyl)-1-ethyl-1H-pyrazole-5-carboxamide]"
18,0.1 to 1,"Cc1nocc1C(=O)N[C@H](c1cn2nc(CC3C[C@@H](C(F)(F)F)CNC3=O)ccc2n1)C1CCC(F)(F)CC1 (stereo partly drawn) [Compound 118, N-((1S)-(4,4-difluorocyclohexyl)(6-(((5R)-2-oxo-5-(trifluoromethyl)piperidin-3-yl)methyl)imidazo[1,2-b]pyridazin-2-yl)methyl)-3-methylisoxazole-4-carboxamide]"
19,0.1 to 1,"N#Cc1cc(C(=O)N[C@H](c2cn3nc(CC4C[C@@H](C(F)(F)F)CNC4=O)ccc3n2)C2CCC(F)(F)CC2)cs1 (stereo partly drawn) [Compound 134, 5-cyano-N-((1S)-(4,4-difluorocyclohexyl)(6-(((5R)-2-oxo-5-(trifluoromethyl)piperidin-3-yl)methyl)imidazo[1,2-b]pyridazin-2-yl)methyl)thiophene-3-carboxamide]"
20,0.1 to 1,"CCn1nccc1C(=O)N[C@H](c1cn2nc(CC3CC(F)(F)CNC3=O)ccc2n1)C1CCCCCC1 (single isomer, unassigned) [Compound 10, N-((1 S)-cycloheptyl(6-((5,5-difluoro-2-oxopiperidin-3-yl)methyl)imidazo[1,2-b]pyridazin-2-yl)methyl)-1-ethyl-1H-pyrazole-5-carboxamide]"
21,> 1,"CCn1nccc1C(=O)N[C@H](c1cn2nc(CC3CC(C)(C)CNC3=O)ccc2n1)[C@H]1CC[C@H](C)CC1 (stereo partly drawn) [Compound 58, N-((1S)-(6-((5,5-dimethyl-2-oxopiperidin-3-yl)methyl)imidazo[1,2-b]pyridazin-2-yl)((1r,4S)-4-methylcyclohexyl)methyl)-1-ethyl-1H-pyrazole-5-carboxamide]"
22,> 1,"CCc1nonc1C(=O)N[C@H](c1cn2nc(C[C@H]3CCCNC3=O)ccc2n1)C1CCC(F)(F)CC1 [Compound 37, N—((S)-(4,4-difluorocyclohexyl)(6-(((R)-2-oxopiperidin-3-yl)methyl)imidazo[1,2-b]pyridazin-2-yl)methyl)-4-ethyl-1,2,5-oxadiazole-3-carboxamide]"
23,< 0.1,"CCn1nccc1C(=O)N[C@H](c1cn2nc(CC3C[C@H](C(F)(F)F)CNC3=O)ccc2n1)C1CCCCCC1 (stereo partly drawn) [Compound 177, N—((S)-cycloheptyl(6-(((5S)-2-oxo-5-(trifluoromethyl)piperidin-3-yl)methyl)imidazo[1,2-b]pyridazin-2-yl)methyl)-1-ethyl-1H-pyrazole-5-carboxamide]"
24,0.1 to 1,"CCn1nccc1C(=O)N[C@H](c1cn2nc(CC3CC(F)(F)CNC3=O)c(C)cc2n1)C1CCC(F)(F)CC1 (single isomer, unassigned) [Compound 76]"
25,0.1 to 1,"CCc1nonc1C(=O)N[C@H](c1cn2nc(C[C@H]3CCCNC3=O)ccc2n1)C(C1CC1)C1CC1 [Compound 35, N—((S)-2,2-dicyclopropyl-1-(6-(((R)-2-oxopiperidin-3-yl)methyl)imidazo[1,2-b]pyridazin-2-yl)ethyl)-4-ethyl-1,2,5-oxadiazole-3-carboxamide]"
26,0.1 to 1,"CC[C@@H](c1ccc(F)cc1)C(NC(=O)c1ccnn1CC)c1cn2nc(CC3CC(F)(F)CNC3=O)ccc2n1 (single isomer, unassigned) [Compound 31]"
27,> 1,"CCn1nccc1C(=O)N[C@H](c1cn2nc(CC3CC(C(C)(F)F)NC3=O)ccc2n1)C1CCC(F)(F)CC1 (single isomer, unassigned) [Compound 68]"
28,0.1 to 1,"Cc1nonc1C(=O)N[C@H](c1cn2nc(CC3CCNC3=O)ccc2n1)C1CCCCCC1 (single isomer, unassigned) [Compound 14, N-((1 S)-cycloheptyl(6-((2-oxopyrrolidin-3-yl)methyl)imidazo[1,2-b]pyridazin-2-yl)methyl)-4-methyl-1,2,5-oxadiazole-3-carboxamide]"
29,0.1 to 1,"CCn1nccc1C(=O)N[C@H](c1cn2nc(CC3CC(F)(F)CNC3=O)c(NC)cc2n1)C1CCC(F)(F)CC1 (single isomer, unassigned) [Compound 73]"
30,< 0.1,"O=C(N[C@H](c1cn2nc(CC3C[C@@H](C(F)(F)F)CNC3=O)ccc2n1)[C@H]1CCCC(F)(F)C1)c1conc1C1CC1 (stereo partly drawn) [Compound 146, 3-cyclopropyl-N-((1S)—((S)-3,3-difluorocyclohexyl)(6-(((5R)-2-oxo-5-(trifluoromethyl)piperidin-3-yl)methyl)imidazo[1,2-b]pyridazin-2-yl)methyl)isoxazole-4-carboxamide]"
